Test: Inhibition of human erythrocyte 20S proteasome assessed as reduction in chymotrypsin-like activity pre-incubated for 10 mins before addition of Suc-Leu-Leu-Val-Tyr-MCA fluorogenic substrate by fluorescence based assay

Row | IC50 [µM] | Structure (SMILES)
1 | 9.5 | C[C@]12CCC[C@](C)(C(=O)O)[C@@H]1CC[C@]1(C)[C@@H]2CC[C@]2(C)Oc3ccc(O)cc3C[C@@H]12 [Strongylophorin-3]
2 | > 100 | CC1(C)CCC[C@]2(C)[C@H]3CC[C@]4(C)Oc5ccc(O)cc5C[C@H]4[C@]3(C)CC[C@@H]12 [Strongylophorin-22]
3 | 3.6 | C[C@@]12CC[C@@H]3[C@]4(CCC[C@]3(C)C(O)OC4)[C@H]1CC[C@]1(C)Oc3ccc(O)cc3C[C@@H]21 (some centres undefined)
4 | 9.3 | CCO[C@H]1OC[C@]23CCC[C@@]1(C)C2CC[C@]1(C)C3CC[C@]2(C)Oc3ccc(O)cc3CC12 (some centres undefined)
5 | > 100 | C[C@@]12CC[C@@H]3[C@]4(CCC[C@@]3(C)C(=O)OC4)[C@H]1CC[C@]1(C)Oc3ccc(O)cc3C[C@@H]21 [strongylophorine-2]
6 | 2.1 | C[C@@]12CC[C@@H]3[C@]4(CCC[C@]3(C)C(O)OC4)[C@H]1CC[C@](C)(O)[C@H]2Cc1cc(O)ccc1O (some centres undefined)
7 | 19 | CC(=O)[C@@]1(C)CCC[C@]2(C)[C@H]3CC[C@]4(C)Oc5ccc(O)cc5C[C@H]4[C@]3(C)CC[C@H]21 [strongylophorine-4]
8 | 8.4 | C[C@@]12CC[C@@H]3[C@]4(CCC[C@]3(C)C(=O)OC4)[C@H]1CC[C@](C)(O)[C@H]2Cc1cc(O)ccc1O [strongylophorine-8]
9 | 6.6 | CO[C@H]1OC[C@]23CCC[C@@]1(C)C2CC[C@]1(C)C3CC[C@]2(C)Oc3ccc(O)cc3CC12 (some centres undefined)

Source: ChEMBL document CHEMBL3585249, “Strongylophorines, meroditerpenoids from the marine sponge Petrosia corticata, function as proteasome inhibitors” (Bioorg Med Chem Lett, 2015)
